Like-named read-outs stand apart in the source and are kept apart here.
Tests used:
CHRM1 = molecular target: T1, CHRM1 (Homo sapiens, UniProt P11229); assay: Safety47 Calcium Flux CHRM1; assay type: cell-based; conditions: for Emax: read-out: Max Response; for EC50: read-out: RC50 (EC50); for IC50: read-out: RC50 (IC50)
T1 construct: purchased Eurofins Panlab Safety47 Safety Scan
T1 sequence (P11229 1-460): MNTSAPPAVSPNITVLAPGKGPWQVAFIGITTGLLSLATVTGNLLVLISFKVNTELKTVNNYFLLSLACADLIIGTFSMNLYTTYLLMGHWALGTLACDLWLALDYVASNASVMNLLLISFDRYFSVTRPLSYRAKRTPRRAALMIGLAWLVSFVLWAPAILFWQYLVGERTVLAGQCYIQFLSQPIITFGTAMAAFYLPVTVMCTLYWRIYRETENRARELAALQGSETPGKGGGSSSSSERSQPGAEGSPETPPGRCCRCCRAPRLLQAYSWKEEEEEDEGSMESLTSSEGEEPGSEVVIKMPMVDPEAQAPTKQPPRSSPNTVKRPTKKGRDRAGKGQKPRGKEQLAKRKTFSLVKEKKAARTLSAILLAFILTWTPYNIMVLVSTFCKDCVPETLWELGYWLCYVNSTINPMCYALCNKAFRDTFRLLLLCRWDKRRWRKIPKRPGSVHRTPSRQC

EDNRA = molecular target: T2, EDNRA (Homo sapiens, UniProt P25101); assay: Safety47 Calcium Flux EDNRA; assay type: cell-based; conditions: for Emax: read-out: Max Response; for EC50: read-out: RC50 (EC50); for IC50: read-out: RC50 (IC50)
T2 construct: purchased Eurofins Panlab Safety47 Safety Scan
T2 sequence (P25101 21-427): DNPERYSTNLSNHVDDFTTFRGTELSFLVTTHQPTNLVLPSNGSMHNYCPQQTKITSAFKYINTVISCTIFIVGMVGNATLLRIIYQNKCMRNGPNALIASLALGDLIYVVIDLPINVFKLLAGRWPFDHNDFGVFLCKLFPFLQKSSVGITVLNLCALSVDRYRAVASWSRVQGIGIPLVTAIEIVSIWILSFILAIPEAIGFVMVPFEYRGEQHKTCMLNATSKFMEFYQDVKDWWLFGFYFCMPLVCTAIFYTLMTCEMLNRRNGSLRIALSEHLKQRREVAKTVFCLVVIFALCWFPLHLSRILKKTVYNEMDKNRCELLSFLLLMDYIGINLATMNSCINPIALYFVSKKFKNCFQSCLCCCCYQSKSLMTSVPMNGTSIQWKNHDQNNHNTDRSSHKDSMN

CHRM2 = molecular target: T3, CHRM2 (Homo sapiens, UniProt P08172); assay: Safety47 cAMP CHRM2; assay type: cell-based; conditions: for Emax: read-out: Max Response; for EC50: read-out: RC50 (EC50); for IC50: read-out: RC50 (IC50)
T3 construct: purchased Eurofins Panlab Safety47 Safety Scan
T3 sequence (P08172 1-466): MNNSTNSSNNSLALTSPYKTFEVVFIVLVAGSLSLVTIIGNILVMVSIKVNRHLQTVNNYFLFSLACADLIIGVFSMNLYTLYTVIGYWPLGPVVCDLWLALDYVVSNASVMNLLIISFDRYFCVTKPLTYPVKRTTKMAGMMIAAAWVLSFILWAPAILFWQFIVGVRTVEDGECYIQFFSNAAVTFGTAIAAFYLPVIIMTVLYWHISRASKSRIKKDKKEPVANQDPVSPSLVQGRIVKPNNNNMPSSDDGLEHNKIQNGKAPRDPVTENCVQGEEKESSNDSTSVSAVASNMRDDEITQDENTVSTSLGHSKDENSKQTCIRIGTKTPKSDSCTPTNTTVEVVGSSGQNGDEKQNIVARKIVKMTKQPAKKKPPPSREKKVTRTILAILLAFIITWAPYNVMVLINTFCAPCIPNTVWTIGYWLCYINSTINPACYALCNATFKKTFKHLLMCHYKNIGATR

HRH2 = molecular target: T4, HRH2 (Homo sapiens, UniProt P25021); assay: Safety47 cAMP HRH2; assay type: cell-based; conditions: for Emax: read-out: Max Response; for EC50: read-out: RC50 (EC50); for IC50: read-out: RC50 (IC50)
T4 construct: purchased Eurofins Panlab Safety47 Safety Scan
T4 sequence (P25021 whole entry): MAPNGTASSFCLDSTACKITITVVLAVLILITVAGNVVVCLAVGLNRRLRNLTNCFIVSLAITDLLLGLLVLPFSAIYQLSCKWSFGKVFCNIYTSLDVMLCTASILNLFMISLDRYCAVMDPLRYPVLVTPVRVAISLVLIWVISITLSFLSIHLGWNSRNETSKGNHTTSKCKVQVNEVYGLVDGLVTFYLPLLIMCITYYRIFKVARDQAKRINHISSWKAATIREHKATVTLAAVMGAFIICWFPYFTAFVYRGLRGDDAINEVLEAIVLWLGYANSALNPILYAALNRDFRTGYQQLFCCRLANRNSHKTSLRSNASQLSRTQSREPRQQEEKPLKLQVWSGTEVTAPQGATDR

GABAA = assay: Safety47 Ion Channel GABAA; assay type: cell-based; conditions: for IC50: read-out: RC50 (IC50); for EC50: read-out: RC50 (EC50)
ROCK1 = molecular target: T5, ROCK1 (Homo sapiens, UniProt Q13464); assay: Safety47 Kinase Binding ROCK1; conditions: Kinases, Inhibitor; for Emax: read-out: Max Response; for IC50: read-out: RC50 (IC50)
T5 construct: purchased Eurofins Panlab (Safety47 Safety Scan, contract panel)
T5 sequence (Q13464 whole entry, species assumed): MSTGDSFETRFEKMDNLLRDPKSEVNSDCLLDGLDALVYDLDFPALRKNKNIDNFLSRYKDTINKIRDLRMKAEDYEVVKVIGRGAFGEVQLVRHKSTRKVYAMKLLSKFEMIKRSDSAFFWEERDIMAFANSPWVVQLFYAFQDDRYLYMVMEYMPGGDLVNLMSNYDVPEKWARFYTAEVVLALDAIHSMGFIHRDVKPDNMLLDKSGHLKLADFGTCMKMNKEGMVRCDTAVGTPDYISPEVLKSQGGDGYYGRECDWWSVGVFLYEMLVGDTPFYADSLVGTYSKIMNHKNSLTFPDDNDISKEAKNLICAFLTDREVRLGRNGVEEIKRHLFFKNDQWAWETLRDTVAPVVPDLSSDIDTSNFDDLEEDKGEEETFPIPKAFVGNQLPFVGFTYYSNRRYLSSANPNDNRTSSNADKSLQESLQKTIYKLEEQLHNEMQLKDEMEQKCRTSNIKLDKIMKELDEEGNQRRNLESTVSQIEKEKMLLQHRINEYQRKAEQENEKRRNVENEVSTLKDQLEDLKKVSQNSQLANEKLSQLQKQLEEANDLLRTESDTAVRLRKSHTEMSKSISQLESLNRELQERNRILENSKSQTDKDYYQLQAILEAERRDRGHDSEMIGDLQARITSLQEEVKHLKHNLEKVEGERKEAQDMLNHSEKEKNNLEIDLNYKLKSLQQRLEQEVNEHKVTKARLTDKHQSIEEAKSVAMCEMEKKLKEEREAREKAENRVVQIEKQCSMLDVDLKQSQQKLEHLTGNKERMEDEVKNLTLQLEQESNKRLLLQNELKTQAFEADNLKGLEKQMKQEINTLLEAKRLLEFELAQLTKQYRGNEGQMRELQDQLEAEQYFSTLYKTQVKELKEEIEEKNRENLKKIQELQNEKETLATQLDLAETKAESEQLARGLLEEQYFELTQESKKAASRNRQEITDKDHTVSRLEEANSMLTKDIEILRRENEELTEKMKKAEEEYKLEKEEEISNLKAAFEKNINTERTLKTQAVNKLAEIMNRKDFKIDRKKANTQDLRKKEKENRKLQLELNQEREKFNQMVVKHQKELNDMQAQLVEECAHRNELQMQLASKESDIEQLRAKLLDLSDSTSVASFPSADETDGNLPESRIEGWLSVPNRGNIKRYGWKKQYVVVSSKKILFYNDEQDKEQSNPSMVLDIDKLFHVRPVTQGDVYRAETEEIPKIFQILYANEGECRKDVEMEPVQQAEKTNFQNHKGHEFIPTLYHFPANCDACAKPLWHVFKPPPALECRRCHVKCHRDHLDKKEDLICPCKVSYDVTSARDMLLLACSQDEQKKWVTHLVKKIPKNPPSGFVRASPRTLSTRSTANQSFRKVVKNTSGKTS

GR = molecular target: T6, GR (Homo sapiens, UniProt P04150); assay: Safety47 NHR Protein Interaction GR; assay type: cell-based; conditions: for Emax: read-out: Max Response; for EC50: read-out: RC50 (EC50); for IC50: read-out: RC50 (IC50)
T6 construct: purchased Eurofins Panlab (Safety47 Safety Scan, contract panel)
T6 sequence (P04150 1-777): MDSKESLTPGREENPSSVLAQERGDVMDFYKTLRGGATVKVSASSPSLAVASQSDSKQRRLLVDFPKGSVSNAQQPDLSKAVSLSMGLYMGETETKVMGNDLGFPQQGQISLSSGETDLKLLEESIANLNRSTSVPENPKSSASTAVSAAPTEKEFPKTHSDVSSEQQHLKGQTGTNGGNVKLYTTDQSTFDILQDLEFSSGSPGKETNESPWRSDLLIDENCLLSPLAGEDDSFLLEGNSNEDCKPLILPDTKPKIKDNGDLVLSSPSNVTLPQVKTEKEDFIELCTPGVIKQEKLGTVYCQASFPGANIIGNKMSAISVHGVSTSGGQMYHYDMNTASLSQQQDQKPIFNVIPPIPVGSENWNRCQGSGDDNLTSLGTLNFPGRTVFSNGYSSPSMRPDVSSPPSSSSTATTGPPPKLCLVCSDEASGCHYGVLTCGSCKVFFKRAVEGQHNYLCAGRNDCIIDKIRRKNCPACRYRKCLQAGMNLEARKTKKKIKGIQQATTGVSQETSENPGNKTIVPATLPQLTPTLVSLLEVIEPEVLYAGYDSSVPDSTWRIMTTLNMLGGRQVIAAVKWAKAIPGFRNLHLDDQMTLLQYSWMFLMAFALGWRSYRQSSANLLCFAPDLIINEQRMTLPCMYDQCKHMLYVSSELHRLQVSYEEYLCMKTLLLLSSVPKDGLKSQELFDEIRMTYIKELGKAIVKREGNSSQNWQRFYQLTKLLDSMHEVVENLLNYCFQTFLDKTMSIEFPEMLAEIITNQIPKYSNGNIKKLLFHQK

AChE = molecular target: T7, AChE (Homo sapiens, UniProt P22303); assay: Safety47 Enzymatic AChE; assay type: biochemical; conditions: Inhibitor; for Emax: read-out: Max Response; for IC50: read-out: RC50 (IC50)
T7 construct: purchased Eurofins Panlab (Safety47 Safety Scan, contract panel)
T7 sequence (P22303 32-614): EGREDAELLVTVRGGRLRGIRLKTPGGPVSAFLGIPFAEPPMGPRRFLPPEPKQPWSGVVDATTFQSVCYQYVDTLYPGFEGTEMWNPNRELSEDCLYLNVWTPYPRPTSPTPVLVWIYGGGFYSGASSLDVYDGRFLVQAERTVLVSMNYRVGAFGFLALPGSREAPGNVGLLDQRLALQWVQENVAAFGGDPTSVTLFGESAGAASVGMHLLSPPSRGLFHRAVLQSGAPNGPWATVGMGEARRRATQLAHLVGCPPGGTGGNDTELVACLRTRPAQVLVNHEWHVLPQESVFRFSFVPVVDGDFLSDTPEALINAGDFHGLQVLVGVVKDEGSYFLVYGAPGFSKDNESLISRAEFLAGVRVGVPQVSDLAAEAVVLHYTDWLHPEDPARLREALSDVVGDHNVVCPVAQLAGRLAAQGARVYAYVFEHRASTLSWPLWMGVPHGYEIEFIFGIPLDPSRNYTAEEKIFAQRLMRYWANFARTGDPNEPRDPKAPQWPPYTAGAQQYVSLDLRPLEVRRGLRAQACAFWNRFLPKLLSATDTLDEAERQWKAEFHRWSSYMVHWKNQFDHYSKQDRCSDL

PDE3A = molecular target: T8, PDE3A (Homo sapiens, UniProt Q14432); assay: Safety47 Enzymatic PDE3A; assay type: biochemical; conditions: Inhibitor; for Emax: read-out: Max Response; for IC50: read-out: RC50 (IC50)
T8 construct: purchased Eurofins Panlab (Safety47 Safety Scan, contract panel)
T8 sequence (Q14432 whole entry, species assumed): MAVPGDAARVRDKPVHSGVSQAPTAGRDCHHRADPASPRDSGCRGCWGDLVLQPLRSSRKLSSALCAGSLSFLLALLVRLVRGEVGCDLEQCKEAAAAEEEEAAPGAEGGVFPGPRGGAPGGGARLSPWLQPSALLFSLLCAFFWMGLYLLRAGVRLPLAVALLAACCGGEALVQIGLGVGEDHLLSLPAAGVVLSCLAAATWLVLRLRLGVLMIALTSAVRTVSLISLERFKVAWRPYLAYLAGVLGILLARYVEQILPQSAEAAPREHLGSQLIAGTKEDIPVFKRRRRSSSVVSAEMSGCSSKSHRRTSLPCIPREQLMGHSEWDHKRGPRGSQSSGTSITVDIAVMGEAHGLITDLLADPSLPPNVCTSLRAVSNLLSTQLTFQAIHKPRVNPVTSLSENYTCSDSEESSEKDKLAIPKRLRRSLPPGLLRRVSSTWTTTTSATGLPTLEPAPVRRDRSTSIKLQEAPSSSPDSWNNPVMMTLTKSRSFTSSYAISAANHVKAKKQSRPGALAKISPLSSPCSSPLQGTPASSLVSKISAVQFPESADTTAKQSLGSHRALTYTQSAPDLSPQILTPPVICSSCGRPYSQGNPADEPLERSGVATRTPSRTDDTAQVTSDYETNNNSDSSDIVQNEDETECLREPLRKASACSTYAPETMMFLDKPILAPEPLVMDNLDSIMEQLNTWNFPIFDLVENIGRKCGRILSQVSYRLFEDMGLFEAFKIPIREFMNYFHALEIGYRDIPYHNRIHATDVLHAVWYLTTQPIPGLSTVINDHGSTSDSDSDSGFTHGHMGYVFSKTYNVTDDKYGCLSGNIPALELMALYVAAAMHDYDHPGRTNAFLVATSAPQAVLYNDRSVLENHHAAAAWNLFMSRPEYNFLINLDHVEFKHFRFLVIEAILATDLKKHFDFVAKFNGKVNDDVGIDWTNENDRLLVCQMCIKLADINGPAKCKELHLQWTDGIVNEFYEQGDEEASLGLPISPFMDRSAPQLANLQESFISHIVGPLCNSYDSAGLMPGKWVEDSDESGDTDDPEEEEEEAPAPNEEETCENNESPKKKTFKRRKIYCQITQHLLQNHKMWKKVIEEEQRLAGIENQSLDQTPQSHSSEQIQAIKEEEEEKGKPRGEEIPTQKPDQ

DAT = molecular target: T9, DAT (Homo sapiens, UniProt Q01959); assay: Safety47 Transporter DAT; assay type: cell-based; conditions: Blocker; for Emax: read-out: Max Response; for IC50: read-out: RC50 (IC50)
T9 construct: purchased Eurofins Panlab (Safety47 Safety Scan, contract panel)
T9 sequence (Q01959 whole entry, species assumed): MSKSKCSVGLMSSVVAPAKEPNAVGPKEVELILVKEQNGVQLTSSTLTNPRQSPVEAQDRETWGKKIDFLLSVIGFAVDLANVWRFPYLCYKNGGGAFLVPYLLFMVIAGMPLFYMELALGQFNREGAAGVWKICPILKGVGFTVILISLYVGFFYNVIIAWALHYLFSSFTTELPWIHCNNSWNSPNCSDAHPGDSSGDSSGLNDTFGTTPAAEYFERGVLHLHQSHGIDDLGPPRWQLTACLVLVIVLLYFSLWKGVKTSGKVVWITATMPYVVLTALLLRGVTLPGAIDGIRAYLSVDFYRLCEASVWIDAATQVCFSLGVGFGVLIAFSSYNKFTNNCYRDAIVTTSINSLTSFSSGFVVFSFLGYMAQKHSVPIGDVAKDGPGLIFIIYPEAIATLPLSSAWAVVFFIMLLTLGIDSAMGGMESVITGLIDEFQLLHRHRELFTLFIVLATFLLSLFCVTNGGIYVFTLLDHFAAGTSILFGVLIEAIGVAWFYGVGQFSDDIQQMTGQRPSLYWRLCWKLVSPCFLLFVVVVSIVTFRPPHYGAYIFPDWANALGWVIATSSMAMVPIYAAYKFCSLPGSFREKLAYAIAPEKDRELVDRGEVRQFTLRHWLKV

Compound | Emax (CHRM1; Agonist) [%] | EC50 (CHRM1; Agonist) [µM] | Emax (CHRM1; Antagonist) [%] | IC50 (CHRM1; Antagonist) [µM] | Emax (EDNRA; Agonist) [%] | EC50 (EDNRA; Agonist) [µM] | Emax (EDNRA; Antagonist) [%] | IC50 (EDNRA; Antagonist) [µM] | Emax (CHRM2; Agonist) [%] | EC50 (CHRM2; Agonist) [µM] | Emax (CHRM2; Antagonist) [%] | IC50 (CHRM2; Antagonist) [µM] | Emax (HRH2; Agonist) [%] | EC50 (HRH2; Agonist) [µM] | Emax (HRH2; Antagonist) [%] | IC50 (HRH2; Antagonist) [µM] | Max Response (GABAA; Blocker) | IC50 (GABAA; Blocker) [µM] | Max Response (GABAA; Opener) | EC50 (GABAA; Opener) [µM] | further results
Cl.c1ccc2c(Nc3ccc4[nH]ccc4c3)nc(-c3ccncc3)nc2c1 [BC18630, N-1H-indol-5-yl-2-pyridin-4-ylquinazolin-4-amine hydrochloride] | 0 | > 10 | 7.76 | > 10 | 0 | > 10 | 3.72 | > 10 | 31.6 | > 10 | 0.25 | > 10 | 0 | > 10 | 43.2 | 6.01 | 27.61 | > 10 | 0.97 | > 10 | Curve Bottom (HRH2; Antagonist): -8.58; Curve Top (HRH2; Antagonist): 73.68; Hill (HRH2; Antagonist): 1; Emax (ROCK1): 20.8%; IC50 (ROCK1): > 10 µM; Emax (GR; Agonist): 0%; EC50 (GR; Agonist): > 10 µM; Emax (GR; Antagonist): 0%; IC50 (GR; Antagonist): > 10 µM; Emax (AChE): 21.2%; IC50 (AChE): > 10 µM; Emax (PDE3A): 8.9%; IC50 (PDE3A): > 10 µM; Emax (DAT): 37%; IC50 (DAT): > 10 µM
Cl.Fc1cc(Nc2nc(-c3ccncc3)nc3ncccc23)cc2cc[nH]c12 [BC18813, N-(7-fluoro-1H-indol-5-yl)-2-pyridin-4-ylpyrido[2,3-d]pyrimidin-4-amine hydrochloride] | 0 | > 10 | 15.3 | > 10 | 5.5 | > 10 | 2.32 | > 10 | 47.7 | > 10 | 12.2 | > 10 | 0 | > 10 | 45.8 | > 10 | 19.98 | > 10 | 0.77 | > 10 | Emax (ROCK1): 22.8%; IC50 (ROCK1): > 10 µM; Emax (GR; Agonist): 4.56%; EC50 (GR; Agonist): > 10 µM; Emax (GR; Antagonist): 7.56%; IC50 (GR; Antagonist): > 10 µM; Emax (AChE): 6.26%; IC50 (AChE): > 10 µM; Emax (PDE3A): 28.2%; IC50 (PDE3A): > 10 µM; Emax (DAT): 16.8%; IC50 (DAT): > 10 µM

Reference: paper PMC12136031 (Science Advances, 2025)
